How the values were obtained:
FGFR1 = molecular target: T1, FGFR1 (Homo sapiens, UniProt P11362); assay: Kinase binding assay (kinase-tagged T7 phage, affinity beads, qPCR), Kd; conditions: read-out: FGFR1 (Kd nM)
T1 construct: made in house; host or cells: E. coli (BL21-derived), T7 phage
Outline: (§1)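 Competition binding; kinase-tagged T7 phage lysate vs immobilised biotinylated ligand on streptavidin beads, 0.9% DMSO final. 11-pt 3-fold dilutions, 3 DMSO controls. qPCR of eluted kinase; Kd by Hill fit, slope −1.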

FGFR3 = molecular target: T2, FGFR3 (Homo sapiens, UniProt P22607); assay: as above; conditions: read-out: FGFR3 (Kd nM)
T2 construct: made in house; host or cells: E. coli (BL21-derived), T7 phage
T2 sequence (P22607 23-806): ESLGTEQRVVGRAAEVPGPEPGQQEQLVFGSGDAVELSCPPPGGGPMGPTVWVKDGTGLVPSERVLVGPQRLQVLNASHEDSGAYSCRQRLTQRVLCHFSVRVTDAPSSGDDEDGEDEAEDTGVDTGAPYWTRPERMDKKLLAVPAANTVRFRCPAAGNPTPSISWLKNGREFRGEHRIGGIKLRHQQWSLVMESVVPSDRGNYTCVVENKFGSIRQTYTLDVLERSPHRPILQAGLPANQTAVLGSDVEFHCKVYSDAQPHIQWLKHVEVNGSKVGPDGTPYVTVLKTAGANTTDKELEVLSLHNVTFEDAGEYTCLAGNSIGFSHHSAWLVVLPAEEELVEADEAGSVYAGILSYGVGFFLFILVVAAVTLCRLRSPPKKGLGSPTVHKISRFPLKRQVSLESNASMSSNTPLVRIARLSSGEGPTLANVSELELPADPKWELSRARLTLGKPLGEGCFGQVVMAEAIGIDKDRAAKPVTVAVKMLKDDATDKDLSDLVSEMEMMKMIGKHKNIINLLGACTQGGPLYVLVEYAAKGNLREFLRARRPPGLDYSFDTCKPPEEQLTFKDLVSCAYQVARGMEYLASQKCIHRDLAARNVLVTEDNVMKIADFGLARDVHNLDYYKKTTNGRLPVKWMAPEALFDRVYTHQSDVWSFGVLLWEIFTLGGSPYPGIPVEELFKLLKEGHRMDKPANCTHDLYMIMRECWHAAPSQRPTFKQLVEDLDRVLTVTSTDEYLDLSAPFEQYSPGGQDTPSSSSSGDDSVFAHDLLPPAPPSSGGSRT
Outline: as §1

[1] = tested on: MDA-MB-453 cell line (FGFR4-Y367C); assay: Cancer cell line cell viability assay (Cell Titer-Glo), 120 hr; assay type: cell-based; conditions: Homo sapiens
Outline: (§2)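 RPMI1640/10% FBS for RT112/84 and MDA-MB-453; IMDM/20% FBS for KG-1; IMDM/10% FBS for HuH7. Cells plated overnight, dosed from 3 μM in 4-fold, 9-point series, incubated at 37° C, then lysed with Cell Titer-Glo 2.0; IC50 by sigmoidal fit.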

[2] = tested on: KG-1 cell line (FGFR 1-fusion); assay: Cancer cell line cell viability assay (Cell Titer-Glo), 72 hr; assay type: cell-based; conditions: Homo sapiens, KG-1, KG-1 cell line (FGFR1-fusion)
Outline: as §2

[3] = tested on: RT112/84 cell line (FGFR3-fusion); assay: as above; assay type: cell-based; conditions: Homo sapiens, RT112/84, RT112/84 cell line (FGFR3-fusion)
Outline: as §2

[4] = tested on: KATO-III cell line (FGFR2 amplification); assay: as above; assay type: cell-based; conditions: Homo sapiens, KATO III
Outline: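 Cells seeded at 5,000-20,000/well, incubated overnight, then treated with a 9-dose, 4-fold dilution series from 3 μM in triplicate at 37° C, 5% CO2. Viability read by Cell Titer-Glo 2.0 luminescence as percent of DMSO control; IC50 from 4-parameter variable-slope sigmoidal fit.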

FGFR4 = molecular target: T3, FGFR4 (Homo sapiens, UniProt P22455); assay: Kinase binding assay (kinase-tagged T7 phage, affinity beads, qPCR), Kd; conditions: read-out: FGFR4 (Kd nM)
T3 construct: made in house; host or cells: E. coli (BL21-derived), T7 phage
T3 sequence (P22455 22-802): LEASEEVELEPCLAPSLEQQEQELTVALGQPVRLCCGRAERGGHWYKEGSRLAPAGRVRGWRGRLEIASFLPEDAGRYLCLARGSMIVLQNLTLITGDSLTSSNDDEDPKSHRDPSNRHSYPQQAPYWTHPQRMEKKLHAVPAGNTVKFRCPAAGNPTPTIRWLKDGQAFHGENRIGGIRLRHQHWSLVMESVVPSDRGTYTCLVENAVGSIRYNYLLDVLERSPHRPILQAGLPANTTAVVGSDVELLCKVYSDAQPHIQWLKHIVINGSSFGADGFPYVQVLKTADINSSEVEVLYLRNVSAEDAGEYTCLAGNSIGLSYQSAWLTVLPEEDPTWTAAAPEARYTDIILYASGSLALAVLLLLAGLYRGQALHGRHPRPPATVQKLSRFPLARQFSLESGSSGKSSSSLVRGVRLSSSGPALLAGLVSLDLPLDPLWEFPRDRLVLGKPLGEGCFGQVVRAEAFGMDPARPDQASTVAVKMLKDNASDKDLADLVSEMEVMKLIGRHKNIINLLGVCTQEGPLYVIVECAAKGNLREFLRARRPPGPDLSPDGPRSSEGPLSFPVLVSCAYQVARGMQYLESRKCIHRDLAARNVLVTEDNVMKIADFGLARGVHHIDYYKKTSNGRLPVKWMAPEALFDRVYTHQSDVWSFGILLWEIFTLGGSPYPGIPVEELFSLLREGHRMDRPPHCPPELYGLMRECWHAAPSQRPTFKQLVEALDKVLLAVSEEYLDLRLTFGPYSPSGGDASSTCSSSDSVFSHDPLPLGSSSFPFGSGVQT
Outline: as §1

FGFR3 (V555M) = molecular target: T4, FGFR3 (V555M) (Homo sapiens, UniProt P22607, V555M); assay: as above; conditions: V555M mutant; read-out: FGFR3 (V555M) (Kd nM)
T4 construct: made in house; host or cells: E. coli (BL21-derived), T7 phage
T4 sequence (P22607 23-806 V555M): as the sequence (P22607 23-806) above, with V533M counted along it
Outline: as §1

FGFR2 = molecular target: T5, FGFR2 (Homo sapiens, UniProt P21802); assay: as above; conditions: read-out: FGFR2 (Kd nM)
T5 construct: made in house; host or cells: E. coli (BL21-derived), T7 phage
T5 sequence (P21802 22-821): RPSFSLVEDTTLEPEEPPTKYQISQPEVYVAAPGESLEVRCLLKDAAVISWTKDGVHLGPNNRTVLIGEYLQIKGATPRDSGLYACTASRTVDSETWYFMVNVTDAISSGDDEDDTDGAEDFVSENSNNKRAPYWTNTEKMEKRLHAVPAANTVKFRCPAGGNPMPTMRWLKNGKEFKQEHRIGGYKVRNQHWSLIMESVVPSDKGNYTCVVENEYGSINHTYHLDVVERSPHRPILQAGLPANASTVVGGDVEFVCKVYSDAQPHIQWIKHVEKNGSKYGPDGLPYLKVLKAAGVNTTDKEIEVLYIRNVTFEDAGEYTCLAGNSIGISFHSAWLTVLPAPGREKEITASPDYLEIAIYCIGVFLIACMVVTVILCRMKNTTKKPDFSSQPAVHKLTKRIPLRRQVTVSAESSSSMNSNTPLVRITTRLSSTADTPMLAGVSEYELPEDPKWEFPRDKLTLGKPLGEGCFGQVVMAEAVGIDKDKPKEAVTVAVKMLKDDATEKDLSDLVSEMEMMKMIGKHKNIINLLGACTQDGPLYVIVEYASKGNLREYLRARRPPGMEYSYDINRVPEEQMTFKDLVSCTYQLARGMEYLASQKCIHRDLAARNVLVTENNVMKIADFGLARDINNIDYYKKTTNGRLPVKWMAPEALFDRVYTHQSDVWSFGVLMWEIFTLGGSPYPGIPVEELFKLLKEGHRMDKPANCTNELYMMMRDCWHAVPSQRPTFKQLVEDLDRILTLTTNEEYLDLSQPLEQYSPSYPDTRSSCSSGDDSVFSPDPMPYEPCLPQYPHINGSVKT
Outline: as §1

[5] = tested on: HuH7 cell line (FGF19 amplification); assay: Cancer cell line cell viability assay (Cell Titer-Glo), 120 hr; assay type: cell-based; conditions: Homo sapiens, Huh-7
Outline: as §2

T1 sequence (P11362 22-822): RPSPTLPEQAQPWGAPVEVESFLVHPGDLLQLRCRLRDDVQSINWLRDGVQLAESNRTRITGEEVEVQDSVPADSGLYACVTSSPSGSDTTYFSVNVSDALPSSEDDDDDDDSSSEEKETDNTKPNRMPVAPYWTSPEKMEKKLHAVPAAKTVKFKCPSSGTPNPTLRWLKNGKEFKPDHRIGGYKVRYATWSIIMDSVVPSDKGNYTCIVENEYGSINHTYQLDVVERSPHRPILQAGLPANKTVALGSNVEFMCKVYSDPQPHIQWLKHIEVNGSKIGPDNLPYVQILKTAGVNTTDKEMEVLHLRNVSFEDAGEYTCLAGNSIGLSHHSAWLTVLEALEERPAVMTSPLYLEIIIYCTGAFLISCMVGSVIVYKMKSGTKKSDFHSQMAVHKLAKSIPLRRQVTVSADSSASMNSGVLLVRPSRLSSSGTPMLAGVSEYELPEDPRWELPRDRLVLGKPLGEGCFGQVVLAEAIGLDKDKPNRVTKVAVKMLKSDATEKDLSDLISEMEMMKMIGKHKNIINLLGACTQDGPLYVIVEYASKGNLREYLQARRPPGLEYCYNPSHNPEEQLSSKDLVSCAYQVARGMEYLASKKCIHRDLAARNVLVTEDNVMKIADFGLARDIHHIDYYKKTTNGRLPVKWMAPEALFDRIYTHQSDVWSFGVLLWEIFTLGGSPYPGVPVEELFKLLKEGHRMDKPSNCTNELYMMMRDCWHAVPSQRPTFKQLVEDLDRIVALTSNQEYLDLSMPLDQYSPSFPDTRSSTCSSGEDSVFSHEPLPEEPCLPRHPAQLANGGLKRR

| Kd (FGFR1) | Kd (FGFR3) | IC50 [1] | IC50 [2] | IC50 [3] | IC50 [4] | Kd (FGFR4) | Kd (FGFR3 (V555M)) | Kd (FGFR2) | IC50 [5] | Structure (SMILES) |
| --- | --- | --- | --- | --- | --- | --- | --- | --- | --- | --- |
| 1 to 50 nM | 1 to 50 nM | 0.1 to 50 nM | 0.1 to 50 nM | 0.1 to 50 nM | 0.1 to 50 nM | – | – | – | – | C[C@@H](Oc1ccc2[nH]nc(-c3cnc(N4CC(N)(Cc5ccnn5C)C4)c(F)c3)c2c1)c1c(Cl)cncc1Cl [Example 283, (R)-1-(5-(5-(1-(3,5-dichloropyridin-4-yl)ethoxy)-1H-indazol-3-yl)-3-fluoropyridin-2-yl)-3-((1-methyl-1H-pyrazol-5-yl)methyl)azetidin-3-amine] |
| 1 to 50 nM | 1 to 50 nM | 50 to 200 nM | 50 to 200 nM | 0.1 to 50 nM | 50 to 200 nM | – | – | – | – | C=CCC1(N)CN(c2ncc(-c3n[nH]c4ccc(O[C@H](C)c5c(Cl)cncc5Cl)cc34)cc2F)C1 [Example 264, (R)-3-ally1-1-(5-(5-(1-(3,5-dichloropyridin-4-yl)ethoxy)-1H-indazol-3-yl)-3-fluoropyridin-2-yl)azetidin-3-amine] |
| 1 to 50 nM | 1 to 50 nM | 200 to 1000 nM | 50 to 200 nM | 0.1 to 50 nM | 50 to 200 nM | – | – | – | – | CC(C)NC1(C)CN(c2ccc(-c3n[nH]c4ccc(O[C@H](C)c5c(Cl)cncc5Cl)cc34)nn2)C1 [Example 244, (R)-1-(6-(5-(1-(3,5-dichloropyridin-4-yl)ethoxy)-1H-indazol-3-yl)pyridazin-3-yl)-N-isopropyl-3-methylazetidin-3-amine] |
| 1 to 50 nM | 1 to 50 nM | 0.1 to 50 nM | 50 to 200 nM | 0.1 to 50 nM | 0.1 to 50 nM | – | – | – | – | C[C@@H](Oc1ccc2[nH]nc(-c3cnc(N4CC(N)(c5cnn(C)c5)C4)c(F)c3)c2c1)c1c(Cl)cncc1Cl [Example 277, (R)-1-(5-(5-(1-(3,5-dichloropyridin-4-yl)ethoxy)-1H-indazol-3-yl)-3-fluoropyridin-2-yl)-3-(1-methyl-1H-pyrazol-4-yl)azetidin-3-amine] |
| 1 to 50 nM | 1 to 50 nM | 0.1 to 50 nM | 200 to 1000 nM | 0.1 to 50 nM | 50 to 200 nM | – | – | – | – | CC(C)=CCC1(N)CN(c2ncc(-c3n[nH]c4ccc(O[C@H](C)c5c(Cl)cncc5Cl)cc34)cc2F)C1 [Example 271, (R)-1-(5-(5-(1-(3,5-dichloropyridin-4-yl)ethoxy)-1H-indazol-3-yl)-3-fluoropyridin-2-yl)-3-(3-methylbut-2-en-1-yl)azetidin-3-amine] |
| 1 to 50 nM | 1 to 50 nM | 200 to 1000 nM | 200 to 1000 nM | 0.1 to 50 nM | 50 to 200 nM | – | – | – | – | C[C@@H](Oc1ccc2[nH]nc(-c3ccc(N4CC(N)(Cc5cnn(C)c5)C4)nn3)c2c1)c1c(Cl)cncc1Cl [Example 289, (R)-1-(6-(5-(1-(3,5-dichloropyridin-4-yl)ethoxy)-1H-indazol-3-yl)pyridazin-3-yl)-3-((1-methyl-1H-pyrazol-4-yl)methyl)azetidin-3-amine] |
| 1 to 50 nM | 1 to 50 nM | 200 to 1000 nM | 50 to 200 nM | 0.1 to 50 nM | 50 to 200 nM | – | – | – | – | C[C@@H](Oc1ccc2[nH]nc(-c3ccc(N4CC(N)(CC5CC5)C4)nn3)c2c1)c1c(Cl)cncc1Cl [Example 272, (R)-3-(cyclopropylmethyl)-1-(6-(5-(1-(3,5-dichloropyridin-4-yl)ethoxy)-1H-indazol-3-yl)pyridazin-3-yl)azetidin-3-amine] |
| 50 to 300 nM | 1 to 50 nM | – | 200 to 1000 nM | 50 to 200 nM | 50 to 200 nM | 1 to 50 nM | 1 to 50 nM | 1 to 50 nM | 0.1 to 50 nM | C[C@@H](Oc1ccc2[nH]nc(-c3cnc(N4CC(C)(N[C@@H]5CCOC5)C4)c(C#N)c3)c2c1)c1c(Cl)cncc1Cl [Example 33, 5-(5-((R)-1-(3,5-dichloropyridin-4-yl)ethoxy)-1H-indazol-3-yl)-2-(3-methyl-3-(((R)-tetrahydrofuran-3-yl)amino)azetidin-1-yl)nicotinonitrile] |
| 1 to 50 nM | 1 to 50 nM | – | 200 to 1000 nM | 50 to 200 nM | 50 to 200 nM | 1 to 50 nM | 1 to 50 nM | 1 to 50 nM | 0.1 to 50 nM | C[C@@H](Oc1ccc2[nH]nc(-c3cnc(N4CC(C)(NCCS(C)(=O)=O)C4)c(C#N)c3)c2c1)c1c(Cl)cncc1Cl [Example 325, 5-[5-[(1R)-1-(3,5-dichloro-4-pyridyl)ethoxy]-1H-indazol-3-yl]-2-[3-methyl-3-(2-methylsulfonylethyl-amino)azetidin-1-yl]pyridine-3-carbonitrile] |
| 1 to 50 nM | 1 to 50 nM | – | 0.1 to 50 nM | 0.1 to 50 nM | 50 to 200 nM | 1 to 50 nM | 1 to 50 nM | 1 to 50 nM | 0.1 to 50 nM | COc1cc2[nH]nc(-c3cnc(N4CC(C)(N5CCC5)C4)c(C#N)c3)c2cc1O[C@H](C)c1c(Cl)cncc1Cl [Example 26, (R)-5-(5-(1-(3,5-dichloropyridin-4-yl)ethoxy)-6-methoxy-1H-indazol-3-yl)-2-(3′-methyl-[1,3′-biazetidin]-1′-yl)nicotinonitrile] |

The remaining lines, values behind:

| Structure (SMILES) | Kd (FGFR1) | Kd (FGFR3) | IC50 [1] | IC50 [2] | IC50 [3] | IC50 [4] | Kd (FGFR4) | Kd (FGFR3 (V555M)) | Kd (FGFR2) | IC50 [5] |
| --- | --- | --- | --- | --- | --- | --- | --- | --- | --- | --- |
| CCC1(N)CN(c2ncc(-c3n[nH]c4ccc(O[C@H](C)c5c(Cl)cncc5Cl)cc34)cc2F)C1 [Example 260, 1-[5-[5-[(1R)-1-(3,5-dichloro-4-pyridyl)ethoxy]-1H-indazol-3-yl]-3-fluoro-2-pyridyl]-3-ethyl-azetidin-3-amine] | 1 to 50 nM | 1 to 50 nM | 0.1 to 50 nM | 50 to 200 nM | 0.1 to 50 nM | 50 to 200 nM | – | – | – | – |
| C[C@@H](Oc1ccc2[nH]nc(-c3ccc(N4CC(C)(OCCN5CCCC5)C4)nn3)c2c1)c1c(Cl)cncc1Cl [Example 269, (R)-5-(1-(3,5-dichloropyridin-4-yl)ethoxy)-3-(6-(3-methyl-3-(2-(pyrrolidin-1-yl)ethoxy)azetidin-1-yl)pyridazin-3-yl)-1H-indazole] | 1 to 50 nM | 1 to 50 nM | 200 to 1000 nM | 50 to 200 nM | 0.1 to 50 nM | 0.1 to 50 nM | – | – | – | – |
| C[C@@H](Oc1ccc2[nH]nc(-c3ccc(N4CC(N)(Cc5ccnn5C)C4)nn3)c2c1)c1c(Cl)cncc1Cl [Example 281, (R)-1-(6-(5-(1-(3,5-dichloropyridin-4-yl)ethoxy)-1H-indazol-3-yl)pyridazin-3-yl)-3-((1-methyl-1H-pyrazol-5-yl)methyl)azetidin-3-amine] | 1 to 50 nM | 1 to 50 nM | 200 to 1000 nM | 50 to 200 nM | 0.1 to 50 nM | 0.1 to 50 nM | – | – | – | – |
| CC(C)CNC1(C)CN(c2ccc(-c3n[nH]c4ccc(O[C@H](C)c5c(Cl)cncc5Cl)cc34)nn2)C1 [Example 242, (R)-1-(6-(5-(1-(3,5-dichloropyridin-4-yl)ethoxy)-1H-indazol-3-yl)pyridazin-3-yl)-N-isobutyl-3-methylazetidin-3-amine] | 1 to 50 nM | 1 to 50 nM | 200 to 1000 nM | 50 to 200 nM | 0.1 to 50 nM | 50 to 200 nM | – | – | – | – |
| C[C@@H](Oc1ccc2[nH]nc(-c3cnc(N4CC(N)(Cc5cnn(C)c5)C4)c(F)c3)c2c1)c1c(Cl)cncc1Cl [Example 290, (R)-1-(5-(5-(1-(3,5-dichloropyridin-4-yl)ethoxy)-1H-indazol-3-yl)-3-fluoropyridin-2-yl)-3-((1-methyl-1H-pyrazol-4-yl)methyl)azetidin-3-amine] | 1 to 50 nM | 1 to 50 nM | 50 to 200 nM | 50 to 200 nM | 0.1 to 50 nM | 50 to 200 nM | – | – | – | – |
| C[C@@H](Oc1ccc2[nH]nc(-c3cnc(N4CC(N)(CC5CC5)C4)c(F)c3)c2c1)c1c(Cl)cncc1Cl [Example 262, (R)-3-(cyclopropylmethyl)-1-(5-(5-(1-(3,5-dichloropyridin-4-yl)ethoxy)-1H-indazol-3-yl)-3-fluoropyridin-2-yl)azetidin-3-amine] | 1 to 50 nM | 1 to 50 nM | 200 to 1000 nM | 50 to 200 nM | 0.1 to 50 nM | 50 to 200 nM | – | – | – | – |
| C[C@@H](Oc1ccc2[nH]nc(-c3cnc(N4CC(C)(N5CCOCC5)C4)c(C#N)c3)c2c1)c1c(Cl)cncc1Cl [Example 34, 5-[5-[(1R)-1-(3,5-dichloro-4-pyridyl)ethoxy]-1H-indazol-3-yl]-2-(3-methyl-3-morpholino-azetidin-1-yl)pyridine-3-carbonitrile] | 50 to 300 nM | 1 to 50 nM | – | 200 to 1000 nM | 50 to 200 nM | 200 to 1000 nM | 1 to 50 nM | 1 to 50 nM | 50 to 300 nM | 0.1 to 50 nM |

— patent US20250368666A1, “INDAZOLE COMPOUNDS” (TYRA BIOSCIENCES, INC., priority 2022, published 2025)
